From patent US20020077289A1, “Angiostatin and endostatin binding proteins and methods of use” (priority 2000, published 2002)
Where two headings read alike, the source gives them in different places. Each block holds one molecule with its values, some of them ahead of it. Bridges are numbered along the chain shown (N, C = ends). Where no end group is shown, it is not given here.

Experiments:
[1] = tested on: recombinant human Angiostatin protein; test: Phage display panning on Angiostatin protein; type: binding
Excerpt: (§1) The Ph.D.-7 phage display library (New England BioLabs Cat #8100), a combinatorial library consisting of random peptide 7-mers, was screened for 7 amino acid binding peptides. The Ph.D.-7 phage display library consists of linear 7-mer peptides fused to the pIII coat protein of M13 via a Gly-Gly-Gly-Ser flexible linker. The library contains 2.8×10^9 independent clones. The Ph.D. library is useful for identifying targets requiring binding elements concentrated in a short stretch of amino acids.
(§2) The Ph.D.-C7C library (New England BioLabs Cat # 8120) is a combinatorial library consisting of random peptide 7-mers flanked by cysteine residues that under non-denaturing conditions are disulfide bonded resulting in the display of cyclized peptides. In non-reducing conditions, the cysteines form a disulfide bond resulting in each peptide being constrained in a disulfide loop. The library contains 3.7×10^9 independent clones that, like the Ph.D.-7 library, result in peptides fused to the pIII coat protein of M13 via a Gly-Gly-Gly-Ser flexible linker. Constrained libraries are useful in the identification of structural epitopes. The Ph.D.-C7C library was screened for the binding of 7 amino acid cyclized binding peptides.
The phage display libraries were screened following the manufacturers' recommendations. […]

[2] = tested on: HUVEC microfilaments; test: Fluorescent staining of formalin fixed endothelial cells with Alexa 488-labeled rhEndostatin; type: cell-based, human; details: 50-fold molar excess (100 μM) of peptide; 40 μg/ml (2 μM) Alexa-rhEndostatin
Protocol: (A), HUVECs, (B), HAECs and (C), HMVECs were incubated in the presence of 40 micrograms per milliliter (μg/ml) Alexa 488-labeled rhEndostatin and photographed at 100× magnification under Alexa 488 (green) excitation wavelength. (D) and (E), HUVECs were incubated simultaneously in anti-tropomyosin TM311 ascites fluid and 40 micrograms per milliliter (μg/ml) Alexa 488-labeled rhEndostatin followed by incubation in Alexa 594 conjugated goat anti-mouse IgG (H+L). The same field was photographed under Alexa 488 (green) and Alexa 594 (red) excitation wavelengths at 100× magnification.
HUVECs were incubated in the presence of 40 micrograms per milliliter (μg/ml) Alexa 488-labeled rhEndostatin alone (A), or in the presence of a 50-fold molar excess of control peptide (B), or E37 peptide (C). Cells were photographed using the same exposure times at 100x magnification under Alexa 488 (green) excitation wavelength.
To detect the binding of Alexa-labeled rhEndostatin 1×10^4 HUVEC, HMVEC and HAECs were plated on 1.5% gelatin coated Nalge Nunc Lab Tek II chamber slides (Naperville, Ill.) and fixed in 10% neutral buffered formalin followed by a methanol wash. The chamber slides were incubated in PBS/1% calf serum containing 40 μg/ml (2 μM) of Alexa 488-labeled rhEndostatin (Narum et al., manuscript in preparation) for 1 hr at room temperature. The slides were washed in PBS, coverslips mounted using fluorescent mounting media (Kirkegaard and Perry Laboratories, Gaithersburg, Md.) and cells photographed under Alexa 488 excitation wavelength. Co-localization studies were performed as above except cells were incubated in PBS/1% calf serum containing 1:200 mouse anti-tropomyosin TM311 (Sigma, St. Louis, Miss.) and 40 μg/ml of Alexa 488-labeled rhEndostatin followed by incubation with goat anti-mouse IgG (H+L) conjugated to Alexa 594 (Molecular Probes, Eugene, Oregon). The same fields were photographed under Alexa 488 and Alexa 594 wavelengths. […]

[3] = tested on: B16-BL6 melanoma cells; test: B16-BL6 experimental metastasis assay; type: in vivo, C57BL/6J mice
Protocol: C57BL/6J mice were injected via the tail vein with 5×10^4 B16-BL6 melanoma cells on day 0. On day 3, groups of five mice received daily subcutaneous doses of either buffer control, 1.5 nmol (1.5 mg/kg/day) of rhEndostatin in combination with 0, 15, 75 or 375 nmol of control or E37 peptide, or control or E37 peptide alone for eleven days. All mice were sacrificed on day 14, and the number of pulmonary surface metastases in each animal counted. Error bars indicate standard deviation of the mean.
C57BL/6J mice (n=8) were injected intravenously (i.v.) with 5×10^4 B16-BL6 cells/mouse. Three days later treatment commenced. 100 μl of citrate-phosphate buffer (66 mM Sodium Phosphate, 17 mM Citric acid, 59 mM NaCl pH 6.2) containing 1.5 nmol of rhEndostatin and 100 μl of PBS containing either 0, 15, 75 or 375 nmol of control or E37 peptide were mixed and injected subcutaneously (s.c.) daily for 11 days. All mice were then sacrificed, their lungs removed and the number of surface metastases counted. Results were analyzed for statistical significance using the 2-tailed Student's t-test.
The following experiment was conducted to determine the interaction of E37 peptide and Endostatin protein. Briefly, the B16BL6 experimental metastasis assay, as known to those of skill in the art and further described in International Patent Application number PCT/US99/11418, was performed as follows. 5×10^4 B16-BL6 cells in 200 μl of PBS were injected into C57BL/6J mice via the tail vein. Three days post injection treatment was started. The injection received by eight groups of mice were: 1) citrate phosphate/PBS buffer, 2) ^30 μg Endostatin protein (in 100 μl PBS), 3) 30 μg Endostatin protein (in 200 μl PBS), 4) 30 μg Endostatin protein plus 50 times molar excess of control peptide (in 200 μl PBS), 5) 30 μg Endostatin protein plus 250 times molar excess of control peptide (in 200 μl PBS), 6) 30 μg Endostatin protein plus 10 times molar excess of E37 peptide (in 200 μl PBS), 7) 30 μg Endostatin protein plus 50 times molar excess of E37 peptide (in 200 μl PBS), and 8) 30 μg Endostatin protein plus 250 times molar excess of E37 peptide (in 200 μl PBS). Doses were administered daily for eleven days posterior to the thoracic cavity subcutaneously. All mice were sacrificed, the lungs removed and the number of surface metastases in each animal were counted under a stereo microscope.

[4] = molecular target: T1, recombinant human Endostatin protein (Homo sapiens, UniProt P39060); test: Phage display panning on Endostatin protein; type: binding
T1 construct: recombinant human Angiostatin protein, K1-4 protein, or recombinant human Endostatin protein were coated overnight; made in house; host or cells: Pichia pastoris
T1 sequence (P39060 1572-1754 limits assumed): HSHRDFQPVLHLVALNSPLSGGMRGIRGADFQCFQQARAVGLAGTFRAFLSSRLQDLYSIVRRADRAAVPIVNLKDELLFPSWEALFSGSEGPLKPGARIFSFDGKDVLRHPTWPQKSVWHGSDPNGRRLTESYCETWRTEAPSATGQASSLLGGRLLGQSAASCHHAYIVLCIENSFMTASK
Excerpt: The Ph.D.-C7C, a disulfide constrained 7-mer phage-display library (New England BioLabs, Beverly, Mass.), was screened as recommended by the manufacturer. Following a third round of amplification individual phage were isolated and the peptide sequences deduced by DNA sequencing.
as §1
as §2, with “Constrained libraries are useful in the identification of structural epitopes. The Ph.D.-C7C library was screened for the binding of 7 amino acid cyclized binding peptides.” left out

[5] = molecular target: recombinant human tropomyosin isoform 3 (human); test: SPR (BIAcore 3000), rhTM3 immobilized, steady state model

Chain of recombinant human Angiostatin protein (P00747 103-352 limits assumed): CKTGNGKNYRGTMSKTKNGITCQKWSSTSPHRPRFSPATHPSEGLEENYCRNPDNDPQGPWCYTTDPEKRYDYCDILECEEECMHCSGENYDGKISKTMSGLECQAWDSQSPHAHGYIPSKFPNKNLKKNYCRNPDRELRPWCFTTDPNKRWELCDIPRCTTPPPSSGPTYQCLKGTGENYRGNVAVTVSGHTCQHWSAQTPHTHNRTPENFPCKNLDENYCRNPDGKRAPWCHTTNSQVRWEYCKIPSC

binding to Angiostatin protein (phage display selection) [1]: binds
Molecule: H A I Y P R H G G G S (HAIYPRHGGGS) [Peptide A10]

binding to Endostatin protein (phage display selection) [4]: binds
binding to Endostatin protein (phage display selection) ([4]; listed as E37): found to bind rhEndostatin
Molecule: CTHWWHKRCGGGS (disulfide 1-9 (inferred)) [E37 peptide]
inhibition of binding of Alexa-labeled rhEndostatin to HUVEC microfilaments [2]: inhibited the binding of rhEndostatin to HUVEC microfilaments
decrease in the anti-tumor activity of rhEndostatin ([3]; co-injection of 1.5 nmol rhEndostatin with 15 nmol E37 peptide): 11%
decrease in the anti-tumor activity of rhEndostatin ([3]; co-injection of 1.5 nmol rhEndostatin with 75 nmol E37 peptide): 30.5%
decrease in the anti-tumor activity of rhEndostatin ([3]; co-injection of 1.5 nmol rhEndostatin with 375 nmol E37 peptide): 84.5%
number of metastatic lesions on the lungs versus control group ([3]; up to 375 nmol/day E37 peptide in the absence of rhEndostatin): not statistically different from that of the control group

Kd [5]: 100 µM
B1: recombinant human Endostatin protein (protein)
chain: T1 sequence (P39060 1572-1754 limits assumed)
modifications: Alexa Fluor 488 label in some experiments
